# Experimental data as given in patent US5760241A, “Thiol derivatives with metallopeptidase inhibitory activity” (priority 1996, dated 1998).
# Key:
# NEP (SHR kidneys) = assay: Ex vivo NEP-inhibitory activity in kidneys of treated SHR; set-up: species or system spontaneously hypertensive rats (SHR); conditions: i.v. 0.64 μmoles/kg, 5 minutes
# Description: The ex vivo ACE/NEP-inhibitory activity of the compounds of formula I, in particular, was evaluated by considering the enzymatic activity in tissue homogenates (lung and kidney for the ACE- and NEP-inhibitory activity, respectively) from spontaneously hypertensive rats (SHR), treated with the tested compounds by intravenous or oral route.
# (§1) a) NEP-inhibitory activity
# The ex vivo NEP-inhibitory activity was evaluated according to the procedure reported in the literature by M. Orlowsky et al., in Biochemistry 1981, 20, 4942-4950.
# The inhibitory activity of the compounds of formula I was evaluated in kidneys of spontaneously hypertensive rats (SHR), 5 minutes after i.v. injection (0.6, 0.64 and 21 μmoles/kg) and 30 minutes, 60 minutes and 4 hours after oral administration (30 μmoles/kg) of the tested compounds.
# After the removal of the kidneys from SHR, the renal tissue was homogenized and incubated for 15 minutes at 37° C. in the presence of Glutaryl-Ala-Ala-Phe-2-naphthylamide (GAAP), as a substrate, and aminopeptidase M at pH 7.6.
# The reaction was stopped by adding an aqueous solution at 10% of trichloroacetic acid.
# The released 2-naphthylamine was determined by adding fast garnet dye (2 ml).
# Enzyme reaction rates were determined by measuring the increase in the optical density at 524 nm (OD524) with respect to a standard obtained with 2-naphthylamine complexed with fast garnet.
# The NEP-inhibitory activity of the tested compounds was expressed as percentage of NEP-inhibition in SHR kidneys.
# As an example, the percentages of basal enzymatic activity obtained in the ex vivo tests after the administration of compounds 29 and 41, as representative compounds of formula I, and of the comparison compounds R-1, R-2, R-3 and R-4 are reported in the following table 2.
# [1] = biological target: T1, NEP (membranes from rat kidney cortex) (Rattus norvegicus, UniProt P07861); assay: In vitro NEP-inhibitory activity in rat kidney cortex membranes ([3H][Leu5]-enkephaline substrate); format: biochemical, male Sprague-Dawley rats; conditions: 20 minutes at 30° C.; [3H][Leu5]-enkephaline 15 nM
# T1 construct: from tissue; host or cells: kidney cortex membranes of male Sprague-Dawley rats
# T1 sequence (P07861 1-750): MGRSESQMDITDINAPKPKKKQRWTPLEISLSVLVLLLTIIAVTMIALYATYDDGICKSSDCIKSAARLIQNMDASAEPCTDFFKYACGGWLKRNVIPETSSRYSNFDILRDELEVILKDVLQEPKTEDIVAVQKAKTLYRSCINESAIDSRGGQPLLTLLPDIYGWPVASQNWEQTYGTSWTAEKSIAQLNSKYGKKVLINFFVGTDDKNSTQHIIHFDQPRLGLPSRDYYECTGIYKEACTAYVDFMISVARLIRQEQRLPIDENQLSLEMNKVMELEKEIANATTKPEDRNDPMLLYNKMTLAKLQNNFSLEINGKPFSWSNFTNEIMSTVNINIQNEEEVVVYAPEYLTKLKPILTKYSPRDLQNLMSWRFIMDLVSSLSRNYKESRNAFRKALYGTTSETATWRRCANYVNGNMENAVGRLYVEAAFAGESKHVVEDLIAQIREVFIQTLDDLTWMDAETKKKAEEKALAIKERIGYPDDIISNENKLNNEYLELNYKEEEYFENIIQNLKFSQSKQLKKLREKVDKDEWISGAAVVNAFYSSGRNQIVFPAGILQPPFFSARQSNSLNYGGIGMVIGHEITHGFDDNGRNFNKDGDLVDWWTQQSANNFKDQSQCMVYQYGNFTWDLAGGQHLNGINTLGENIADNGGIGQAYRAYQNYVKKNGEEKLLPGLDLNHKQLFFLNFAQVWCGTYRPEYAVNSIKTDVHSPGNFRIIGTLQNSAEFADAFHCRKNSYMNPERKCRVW
# Description: as §1
# The NEP-inhibitory activity was evaluated in membranes from rat kidney cortex prepared according to the procedure described by T. Maeda et al. in Biochim. Biophys. Acta 1983, 731(1), 115-120.
# By working at 0°-4° C., kidneys were removed from male Sprague-Dawley rats weighing approximately 300 g.
# Cortex was carefully dissected, finely minced and suspended in a homogenization buffer (10 mM sodium phosphate pH 7.4 containing 1 mM MgCl2, 30 mM NaCl, 0.02% NaN3) 1:15 weight/volume.
# The tissue was then homogenized for 30 seconds using an Ultra-Turrax homogenizer.
# Approximately 10 ml of homogenate were layered over 10 ml of sucrose (41% weight/volume) and centrifuged at 31200 rpm for 30 minutes at 4° C. in a fixed angle rotor. The membranes were collected from the buffer/sucrose interface, washed twice with 50 mM TRIS/HCl buffer (pH 7.4) and resuspended into the same buffer for storage.
# The membranes were stored in small aliquots at -80° C. until use.
# The NEP-inhibitory activity was evaluated according to the method described by C. Llorens et al., in Eur. J. Pharmacol., 69, (1981), 113-116, as reported hereinafter.
# Aliquots of the membrane suspension prepared as above described (concentration 5 μg/ml of proteins) were preincubated in the presence of an aminopeptidase inhibitory (Bestatin--1 mM) for 10 minutes at 30° C.
# [^3 H][Leu^5 ]-enkephaline (15 nM) and buffer TRIS/HCl pH 7.4 (50 mM) were added in order to obtain a final volume of 100 μl.
# Incubation (20 minutes at 30° C.) was stopped by adding HCl 0.1M (100 μl).
# The formation of the metabolite [^3 H]Tyr-Gly-Gly was quantified by chromatography on polystyrene columns (Porapak Q).
compound,measurement,setting,value
O=C(N[C@@H](Cc1ccc(-c2ccccc2)cc1)C(=O)O)C(CS)Cc1ccccc1 (some centres unmarked) [compound 41],"NEP-inhibition (kidneys), 5 minutes",NEP (SHR kidneys),20%
same,IC50,[1],5 nM
